# Results taken from ChEMBL document CHEMBL3885861, “Open TG-GATES”.
# Organism: Rattus norvegicus
# Experiment: Open TG-GATES - Regimen: Single
# Assay type: toxicity, organism-based, Sprague-Dawley
# Design: regimen Single, gender Male, age 6 weeks
# Conditions: in vivo, po, 24 h, route gavage; for Bas / Eos / Hb / Ht / Lym / MCH / MCHC / MCV / Mono / Neu / Plat / RBC / Ret / WBC: tissue Blood; for KIDNEY_L / KIDNEY_R / KIDNEY_TOTAL: tissue Kidney; for LIVER: tissue Liver; for A/G / ALP / ALT / AST / BUN / CRE / Ca / Cl / DBIL / GLC / IP / K / LDH / Na / PL / RALB / TBIL / TC / TG / TP / gamma-GTP: tissue Plasma
structure (smiles),measurement,setting,value
O=NN1CCOCC1 [N-NITROSOMORPHOLINE],TERMINAL_BW,"0 mg/kg, dose level Control",228.1 g
same,Bas,"0 mg/kg, dose level Control",0%
same,Eos,"0 mg/kg, dose level Control",0.6%
same,Hb,"0 mg/kg, dose level Control",12.5 g/dL
same,Ht,"0 mg/kg, dose level Control",38.4%
same,Lym,"0 mg/kg, dose level Control",80%
same,MCH,"0 mg/kg, dose level Control",20.2 pg
same,MCHC,"0 mg/kg, dose level Control",32.5%
same,MCV,"0 mg/kg, dose level Control",62.2 fL
same,Mono,"0 mg/kg, dose level Control",2.2%
same,Neu,"0 mg/kg, dose level Control",16.4%
same,Plat,"0 mg/kg, dose level Control",122.3 x10_4/uL
same,RBC,"0 mg/kg, dose level Control",619.4 x10_4/ul
same,Ret,"0 mg/kg, dose level Control",8%
same,WBC,"0 mg/kg, dose level Control",73.5 x10_2/uL
same,KIDNEY_L,"0 mg/kg, dose level Control",1 g
same,KIDNEY_R,"0 mg/kg, dose level Control",1 g
same,KIDNEY_TOTAL,"0 mg/kg, dose level Control",2.1 g
same,LIVER,"0 mg/kg, dose level Control",10.8 g
same,A/G,"0 mg/kg, dose level Control",1
same,ALP,"0 mg/kg, dose level Control",1437.2 IU/L
same,ALT,"0 mg/kg, dose level Control",38.6 IU/L
same,AST,"0 mg/kg, dose level Control",65.2 IU/L
same,BUN,"0 mg/kg, dose level Control",15.9 mg/dL
same,CRE,"0 mg/kg, dose level Control",0.2 mg/dL
same,Ca,"0 mg/kg, dose level Control",10.8 mg/dL
same,Cl,"0 mg/kg, dose level Control",103.3 meq/L
same,DBIL,"0 mg/kg, dose level Control",0 mg/dL
same,GLC,"0 mg/kg, dose level Control",188 mg/dL
same,IP,"0 mg/kg, dose level Control",6.6 mg/dL
same,K,"0 mg/kg, dose level Control",4.4 meq/L
same,LDH,"0 mg/kg, dose level Control",152.8 IU/L
same,Na,"0 mg/kg, dose level Control",141.3 meq/L
same,PL,"0 mg/kg, dose level Control",162.4 mg/dL
same,RALB,"0 mg/kg, dose level Control",2.9 g/dL
same,TBIL,"0 mg/kg, dose level Control",0.006 mg/dL
same,TC,"0 mg/kg, dose level Control",81.8 mg/dL
same,TG,"0 mg/kg, dose level Control",144.6 mg/dL
same,TP,"0 mg/kg, dose level Control",5.7 g/dL
same,gamma-GTP,"0 mg/kg, dose level Control",1 IU/L
same,TERMINAL_BW,"100 mg/kg, dose level Low",215.1 g
same,Bas,"100 mg/kg, dose level Low",0%
same,Eos,"100 mg/kg, dose level Low",0.4%
same,Hb,"100 mg/kg, dose level Low",13.6 g/dL
same,Ht,"100 mg/kg, dose level Low",41.7%
same,Lym,"100 mg/kg, dose level Low",66.4%
same,MCH,"100 mg/kg, dose level Low",20.4 pg
same,MCHC,"100 mg/kg, dose level Low",32.7%
same,MCV,"100 mg/kg, dose level Low",62.4 fL
same,Mono,"100 mg/kg, dose level Low",3.8%
same,Neu,"100 mg/kg, dose level Low",27.8%
same,Plat,"100 mg/kg, dose level Low",110.9 x10_4/uL
same,RBC,"100 mg/kg, dose level Low",669.4 x10_4/ul
same,Ret,"100 mg/kg, dose level Low",7.6%
same,WBC,"100 mg/kg, dose level Low",88.5 x10_2/uL
same,KIDNEY_L,"100 mg/kg, dose level Low",1 g
same,KIDNEY_R,"100 mg/kg, dose level Low",1 g
same,KIDNEY_TOTAL,"100 mg/kg, dose level Low",2 g
same,LIVER,"100 mg/kg, dose level Low",9.2 g
same,A/G,"100 mg/kg, dose level Low",1.1
same,ALP,"100 mg/kg, dose level Low",1723.6 IU/L
same,ALT,"100 mg/kg, dose level Low",134.6 IU/L
same,AST,"100 mg/kg, dose level Low",347.6 IU/L
same,BUN,"100 mg/kg, dose level Low",18.8 mg/dL
same,CRE,"100 mg/kg, dose level Low",0.2 mg/dL
same,Ca,"100 mg/kg, dose level Low",10.8 mg/dL
same,Cl,"100 mg/kg, dose level Low",102 meq/L
same,DBIL,"100 mg/kg, dose level Low",0.046 mg/dL
same,GLC,"100 mg/kg, dose level Low",164.2 mg/dL
same,IP,"100 mg/kg, dose level Low",8 mg/dL
same,K,"100 mg/kg, dose level Low",4.3 meq/L
same,LDH,"100 mg/kg, dose level Low",883.2 IU/L
same,Na,"100 mg/kg, dose level Low",140.8 meq/L
same,PL,"100 mg/kg, dose level Low",141.4 mg/dL
same,RALB,"100 mg/kg, dose level Low",2.8 g/dL
same,TBIL,"100 mg/kg, dose level Low",0.084 mg/dL
same,TC,"100 mg/kg, dose level Low",73.4 mg/dL
same,TG,"100 mg/kg, dose level Low",34.1 mg/dL
same,TP,"100 mg/kg, dose level Low",5.4 g/dL
same,gamma-GTP,"100 mg/kg, dose level Low",0.9 IU/L
same,TERMINAL_BW,"300 mg/kg, dose level Middle",212.5 g
same,Bas,"300 mg/kg, dose level Middle",0%
same,Eos,"300 mg/kg, dose level Middle",0.6%
same,Hb,"300 mg/kg, dose level Middle",14.2 g/dL
same,Ht,"300 mg/kg, dose level Middle",43.1%
same,Lym,"300 mg/kg, dose level Middle",59.2%
same,MCH,"300 mg/kg, dose level Middle",20.9 pg
same,MCHC,"300 mg/kg, dose level Middle",32.9%
same,MCV,"300 mg/kg, dose level Middle",63.4 fL
same,Mono,"300 mg/kg, dose level Middle",3.2%
same,Neu,"300 mg/kg, dose level Middle",36.2%
same,Plat,"300 mg/kg, dose level Middle",115.8 x10_4/uL
same,RBC,"300 mg/kg, dose level Middle",680.2 x10_4/ul
same,Ret,"300 mg/kg, dose level Middle",7.6%
same,WBC,"300 mg/kg, dose level Middle",67.6 x10_2/uL
same,KIDNEY_L,"300 mg/kg, dose level Middle",1 g
same,KIDNEY_R,"300 mg/kg, dose level Middle",1 g
same,KIDNEY_TOTAL,"300 mg/kg, dose level Middle",1.9 g
same,LIVER,"300 mg/kg, dose level Middle",8.7 g
same,A/G,"300 mg/kg, dose level Middle",1.2
same,ALP,"300 mg/kg, dose level Middle",1483.8 IU/L
same,ALT,"300 mg/kg, dose level Middle",94.6 IU/L
same,AST,"300 mg/kg, dose level Middle",245.8 IU/L
same,BUN,"300 mg/kg, dose level Middle",15 mg/dL
same,CRE,"300 mg/kg, dose level Middle",0.2 mg/dL
same,Ca,"300 mg/kg, dose level Middle",10.7 mg/dL
same,Cl,"300 mg/kg, dose level Middle",101.9 meq/L
same,DBIL,"300 mg/kg, dose level Middle",0.038 mg/dL
same,GLC,"300 mg/kg, dose level Middle",172.6 mg/dL
same,IP,"300 mg/kg, dose level Middle",8.1 mg/dL
same,K,"300 mg/kg, dose level Middle",4.1 meq/L
same,LDH,"300 mg/kg, dose level Middle",426 IU/L
same,Na,"300 mg/kg, dose level Middle",140.4 meq/L
same,PL,"300 mg/kg, dose level Middle",115.4 mg/dL
same,RALB,"300 mg/kg, dose level Middle",3 g/dL
same,TBIL,"300 mg/kg, dose level Middle",0.064 mg/dL
same,TC,"300 mg/kg, dose level Middle",60.8 mg/dL
same,TG,"300 mg/kg, dose level Middle",31.5 mg/dL
same,TP,"300 mg/kg, dose level Middle",5.5 g/dL
same,gamma-GTP,"300 mg/kg, dose level Middle",1 IU/L
same,TERMINAL_BW,"600 mg/kg, dose level High",197.8 g
same,Bas,"600 mg/kg, dose level High",0%
same,Eos,"600 mg/kg, dose level High",1%
same,Hb,"600 mg/kg, dose level High",14.9 g/dL
same,Ht,"600 mg/kg, dose level High",44.9%
same,Lym,"600 mg/kg, dose level High",35%
same,MCH,"600 mg/kg, dose level High",20.6 pg
same,MCHC,"600 mg/kg, dose level High",33.3%
same,MCV,"600 mg/kg, dose level High",61.9 fL
same,Mono,"600 mg/kg, dose level High",2.4%
same,Neu,"600 mg/kg, dose level High",61.8%
same,Plat,"600 mg/kg, dose level High",103.6 x10_4/uL
same,RBC,"600 mg/kg, dose level High",727.4 x10_4/ul
same,Ret,"600 mg/kg, dose level High",7.5%
same,WBC,"600 mg/kg, dose level High",51.6 x10_2/uL
same,KIDNEY_L,"600 mg/kg, dose level High",0.9 g
same,KIDNEY_R,"600 mg/kg, dose level High",0.9 g
same,KIDNEY_TOTAL,"600 mg/kg, dose level High",1.8 g
same,LIVER,"600 mg/kg, dose level High",7.9 g
same,A/G,"600 mg/kg, dose level High",1.1
same,ALP,"600 mg/kg, dose level High",1527.2 IU/L
same,ALT,"600 mg/kg, dose level High",100.4 IU/L
same,AST,"600 mg/kg, dose level High",304 IU/L
same,BUN,"600 mg/kg, dose level High",13.9 mg/dL
same,CRE,"600 mg/kg, dose level High",0.1 mg/dL
same,Ca,"600 mg/kg, dose level High",10.5 mg/dL
same,Cl,"600 mg/kg, dose level High",101.5 meq/L
same,DBIL,"600 mg/kg, dose level High",0.022 mg/dL
same,GLC,"600 mg/kg, dose level High",174.4 mg/dL
same,IP,"600 mg/kg, dose level High",8 mg/dL
same,K,"600 mg/kg, dose level High",4.2 meq/L
same,LDH,"600 mg/kg, dose level High",476.8 IU/L
same,Na,"600 mg/kg, dose level High",139.4 meq/L
same,PL,"600 mg/kg, dose level High",105 mg/dL
same,RALB,"600 mg/kg, dose level High",3.1 g/dL
same,TBIL,"600 mg/kg, dose level High",0.044 mg/dL
same,TC,"600 mg/kg, dose level High",56.2 mg/dL
same,TG,"600 mg/kg, dose level High",25.4 mg/dL
same,TP,"600 mg/kg, dose level High",5.7 g/dL
same,gamma-GTP,"600 mg/kg, dose level High",1.1 IU/L
